The values that follow come from patent publication EP0633316A1, “Lys-aminopeptidase PepN from lactobacillus delbruckii ssp. Lactis, nucleic acids coding for it, and its use in fermentation processes” (EUROPEAN ECONOMIC COMMUNITY E.E.C., priority 1993, dated 1995).

Like-named read-outs stand apart in the source and are kept apart here. Non-standard residues stand in square brackets, D forms with d. Residues, ends and D or L forms follow the SMILES beside them. *: point of attachment. Sta = CC(C)C[C@H](N)[C@@H](O)CC(=O)O; pNA = O=[N+]([O-])c1ccc(N*)cc1; Isovaleryl = CC(C)CC(=O)*

Assay type in all cases: biochemical, Lactobacillus delbrückii ssp. lactis
Data set [1] deals with T1, PepN (Lactobacillus delbrueckii subsp. lactis, UniProt P37896).
T1 construct: made in house; host or cells: E. coli CM89 (pepN-deficient) harbouring plasmid pUK13
T1 sequence (P37896 1-843): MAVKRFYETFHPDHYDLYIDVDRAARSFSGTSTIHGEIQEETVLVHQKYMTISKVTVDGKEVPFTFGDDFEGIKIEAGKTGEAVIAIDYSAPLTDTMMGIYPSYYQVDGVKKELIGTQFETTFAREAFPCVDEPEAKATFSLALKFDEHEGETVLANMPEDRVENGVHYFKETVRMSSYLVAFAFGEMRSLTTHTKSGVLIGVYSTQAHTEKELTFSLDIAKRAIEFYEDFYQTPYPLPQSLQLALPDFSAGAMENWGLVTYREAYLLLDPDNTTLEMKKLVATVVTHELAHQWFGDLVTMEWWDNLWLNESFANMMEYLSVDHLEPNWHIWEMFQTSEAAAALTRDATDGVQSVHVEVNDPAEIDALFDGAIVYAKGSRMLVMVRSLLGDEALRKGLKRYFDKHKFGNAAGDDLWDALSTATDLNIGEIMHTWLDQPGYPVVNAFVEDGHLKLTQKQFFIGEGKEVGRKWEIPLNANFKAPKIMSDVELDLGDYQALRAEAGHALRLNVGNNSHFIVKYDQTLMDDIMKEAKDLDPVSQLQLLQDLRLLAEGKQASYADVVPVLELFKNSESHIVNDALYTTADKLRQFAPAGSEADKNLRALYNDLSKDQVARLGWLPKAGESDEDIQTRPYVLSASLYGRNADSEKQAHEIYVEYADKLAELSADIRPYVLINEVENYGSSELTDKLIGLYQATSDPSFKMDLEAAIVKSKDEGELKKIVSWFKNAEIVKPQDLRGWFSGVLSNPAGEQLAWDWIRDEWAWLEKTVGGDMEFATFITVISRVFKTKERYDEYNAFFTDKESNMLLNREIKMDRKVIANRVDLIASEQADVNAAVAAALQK
Briefly: Substrate specificity of purified PepN against p-nitroanilide substrates. As to conditions: p-nitroanilide substrates 1 mM, 10 min at 37°C, Tris-HCl 10 mM pH 8.0. As for the experimental part:
(§1) For characterization of the enzyme the p-nitroanilide subtrates (Bachem) were dissolved in water and added to the reaction mixture [Tris-HCl 10 mM, pH 8.0, and varying amounts of purified enzyme (1-200 ng)] to a concentration of 1 mM in a volume of 250 µl. Release of p-nitroaniline was measured after a 10 min incubation at 37°C at […] in a LKB Ultrospec plus spectrophotometer. For rapid screening of active fractions during purification of the enzyme, samples were prepared in micro titer plates and measured in a BIORAD model 2550 EIA reader.

For data set [2], the target named is T1, PepN. Briefly: biochemical. As to conditions: for activity at 1000 µM: read-out: relative activity. As for the experimental part:
The percentages of relative activity indicated above, correspond to residual activities after addition of the inhibitor as compared with the control without inhibitor. The conditions and methods for determination are taken from "Proteolytic enzymes, a practical approach, Beynon R.J. and Bond J.S., Oxford University Press 1989." (Chapter 4, Determination of protease mechanism, Ben M. Dunn).
as §1
To study the mechanism of enzyme action, the inhibitors phenylmethansulphonyl fluoride (PMSF) at a concentration of 1 mM, pepstatin A at 1 µg/ml, L-trans-epoxysuccinyl-leucylamide(4-guanidino)-butane (E-64) at 0.1 mM, and 1,10-phenanthroline or EDTA at 1 mM were added to the enzyme and incubated for 30 min at 37°C. The substrate lys-p-nitroanilide was added and activity was measured spectrophotometrically by the release of p-nitroaniline.

Substrate in data set [3]: NCCCC[C@H](N)C(=O)Nc1ccc([N+](=O)[O-])cc1
As to the kind of experiment: Substrate specificity of purified PepN against p-nitroanilide substrates. Conditions: other: Lineweaver-Burk plot; pH 8.0; 37.0 °C. As for the experimental part: as §1

[4] abbreviates: PMSF 1 mM, pepstatin A 1 µg/ml, E-64 0.1 mM, 1,10-phenanthroline or EDTA 1 mM, 30 min at 37°C, substrate lys-p-nitroanilide.

`C[C@H](N)C(=O)N1CCC[C@H]1C(=O)Nc1ccc([N+](=O)[O-])cc1` [Ala-Pro-pNA] (H-Ala-Pro-pNA): the “relative activity (%)” value at PepN [1] is on record as 0%.
The same measure, in the same setting: as for `C[C@H](N)C(=O)Nc1ccc([N+](=O)[O-])cc1` [Ala-pNA], the figure is 12%.
As to `CC(C)CC(NC(=O)C1OC1C(=O)O)C(=O)NCCCCN=C(N)N` [E-64, L-trans-epoxysuccinyl-leucylamide(4-guanidino)-butane], the “effect on enzyme activity” value at PepN [2] (setting [4]) is “no effect”.
For the molecule `O=C(O)CN(CCN(CC(=O)O)CC(=O)O)CC(=O)O` [EDTA], on PepN [2], the “effect on enzyme activity” value is listed as “full inhibition” and the activity at 1000 µM came out at 3%.
For `NCC(=O)Nc1ccc([N+](=O)[O-])cc1` [Gly-pNA], on PepN [1], the “relative activity (%)” value is recorded as 1%.
In the case of `CC(C)C[C@H](N)C(=O)Nc1ccc([N+](=O)[O-])cc1` [Leu-pNA], the “relative activity (%)” value on PepN [1] was 19%.
On the same count and under the same terms, as for `NCCCC[C@H](N)C(=O)Nc1ccc([N+](=O)[O-])cc1` [Lys-pNA, lys-p-nitroanilide], the figure is 100%.
In the case of `O=S(=O)(F)Cc1ccccc1` [PMSF, phenylmethansulphonyl fluoride], the “effect on enzyme activity” value on PepN [2] (setting [4]) was “no effect”.
Still for that read-out and setting: as for `CC(C)CC(=O)N[C@H](C(=O)N[C@H](C(=O)N[C@@H](CC(C)C)[C@@H](O)CC(=O)N[C@@H](C)C(=O)N[C@@H](CC(C)C)[C@@H](O)CC(=O)O)C(C)C)C(C)C` [Pepstatin A, pepstatin A] (Isovaleryl-VV[Sta]A[Sta]-OH), the entry is “no effect”.
As for `N[C@@H](Cc1ccccc1)C(=O)Nc1ccc([N+](=O)[O-])cc1` [Phe-pNA], the “relative activity (%)” value on PepN [1] is given as 8%.
Regarding `c1cnc2c(c1)ccc1cccnc12` [Phenanthroline, 1,10-phenanthroline], the “effect on enzyme activity” value at PepN [2] (setting [4]) is “full inhibition”. Also, the activity at 1000 µM at PepN [2] (end concentration 1 mM, residual activity after addition of the inhibitor compared with control without inhibitor) is 4%.
`O=C(Nc1ccc([N+](=O)[O-])cc1)[C@@H]1CCCN1` [Pro-pNA]: the “relative activity (%)” value at PepN [1] is reported as 2%.
On the same count and under the same terms, as for `N[C@@H](Cc1ccc(O)cc1)C(=O)Nc1ccc([N+](=O)[O-])cc1` [Tyr-pNA], the figure is 2%.

B1: PepN (Lactobacillus delbrueckii subsp. lactis) (protein)
chain: T1 sequence (P37896 1-843)
notes: made in house; host or cells: E. coli CM89 (pepN-deficient) harbouring plasmid pUK13
As to B1, the Km (in general, the substrate concentration at which the rate is half of its maximum) in data set [3] amounted to 70 µM.
